Blank lines part the entries; values can stand above or below the compound they belong to.
Columns and labels:
[1] = test system: MDA-MB-435 (melanoma) cancer cell line; test: Cytotoxicity assay, MDA-MB-435 cells; assay type: cell-based, human; details: for factor by which activity is reduced relative to compound 5: MDA-MB-435 cells, versus 5; for IC50: Homo sapiens, MDA-MB-435, 72 h, read-out: IC50 values, MDA-MB-435
[2] = test system: HT-29 (colon) cancer cell line; test: Cytotoxicity assay, HT-29 cells; assay type: cell-based, human; details: for IC50: Homo sapiens, HT-29, 72 h, read-out: IC50 values, HT-29
Stability in solution = assay type: physicochemical; details: CDCl3

Compound: COc1cc(O)c(Cl)c2c1C(=O)O[C@@H](C)CCC(=O)CC/C=C/C(=O)C2 [Compound 1, greensporone A]
factor by which activity is reduced relative to compound 5 [1]: ~5

Compound: COc1cc(O)c(Cl)c2c1C(=O)O[C@@H](C)CCC(=O)CC/C=C\C(=O)C2 [Compound 2, greensporone B]
IC50 [1]: > 20 µM | IC50 [2]: > 20 µM

Compound: COc1cc(O)c(Cl)c2c1C(=O)O[C@@H](C)CCC(=O)CCCCC(=O)C2 [Compound 3, 8,9-dihydrogreensporone A]
IC50 [1]: > 20 µM | IC50 [2]: > 20 µM

Compound: COc1cc(O)cc2c1C(=O)O[C@@H](C)CCC(=O)CC/C=C/C(=O)C2 [Compound 4, dechlorogreensporone A]
factor by which activity is reduced relative to compound 5 [1]: ~5

Compound: C[C@H]1CCCCC/C=C/C(=O)Cc2cc(O)cc(O)c2C(=O)O1 [Compound 6, O-desmethylgreensporone C]
factor by which activity is reduced relative to compound 5 [1]: 5 | factor by which activity is reduced relative to compound 5 ([2]; HT-29 cells, versus 5): 2

Compound: COc1cc(O)cc2c1C(=O)O[C@@H](C)CCCCCCCC(=O)C2 [Compound 7, 8,9-dihydrogreensporone C]
IC50 [1]: > 20 µM | IC50 [2]: > 20 µM

stability in solution (Stability in solution): converted to 12
Compound: COc1cc(O)c(Cl)c2c1C(=O)O[C@@H](C)CC[C@@H](O)CC/C=C/C(=O)C2 [Compound 8, greensporone D]

Compound: COc1cc(O)c(Cl)c2c1C(=O)O[C@@H](C)CC[C@@H](O)CC/C=C\C(=O)C2 [Compound 9, greensporone E]
IC50 [1]: > 20 µM | IC50 [2]: > 20 µM

Compound: COc1cc(O)cc2c1C(=O)O[C@@H](C)CC[C@@H](O)CC/C=C/C(=O)C2 [Compound 10, dechlorogreensporone D]
factor by which activity is reduced relative to compound 5 [1]: ~4

Compound: COc1cc(O)c(Cl)c2c1C(=O)O[C@@H](C)CC[C@@H](O)CCCCC(=O)C2 [Compound 11, 8,9-dihydrogreensporone D]
IC50 [1]: > 20 µM | IC50 [2]: > 20 µM

Compound: COc1cc(O)cc2c1C(=O)O[C@@H](C)CC[C@H]1CC[C@@H](CC(=O)C2)O1 [Compound 13, dechlorogreensporone F]
IC50 [1]: > 20 µM | IC50 [2]: > 20 µM

Compound: COc1cc(O)cc2c1C(=O)O[C@@H](C)CC[C@H]1CC[C@H](CC(=O)C2)O1 [Compound 14, greensporone G]
IC50 [1]: > 20 µM | IC50 [2]: > 20 µM

Reference: PMC4176394 (Journal of Natural Products, 2014)
